Consider one compound from PMC4561889, “Geranylgeranylacetone selectively binds to the HSP70 of Helicobacter pylori and alters its coccoid morphology” (Scientific Reports, 2015).

The target in test [1] is T1, HSP70 (human HSP70) (Homo sapiens, UniProt P0DMV8).
T1 construct: gene HSPA1A; full-length cDNA (from R. Morimoto) in pCold I (vector His tag, cleavage not mentioned); forward primer encodes N-terminus MAKAAAV
Description: citrate synthase thermal aggregation (light scattering, […] nm). In kind it is biochemical. To be noted: 50 mM HEPES pH 7.4, 50 C; 50 μM HSP70, 0.25 μM citrate synthase, 5 mM GGA.

The next test has as its target T2, DnaK (H. pylori HSP70) (Helicobacter pylori, UniProt P55994).
T2 construct: full length cloned from genomic DNA of ATCC43504 in pCold I (vector His tag, cleavage not mentioned), E. coli BL21, Ni-NTA
T2 sequence (P55994 2-620): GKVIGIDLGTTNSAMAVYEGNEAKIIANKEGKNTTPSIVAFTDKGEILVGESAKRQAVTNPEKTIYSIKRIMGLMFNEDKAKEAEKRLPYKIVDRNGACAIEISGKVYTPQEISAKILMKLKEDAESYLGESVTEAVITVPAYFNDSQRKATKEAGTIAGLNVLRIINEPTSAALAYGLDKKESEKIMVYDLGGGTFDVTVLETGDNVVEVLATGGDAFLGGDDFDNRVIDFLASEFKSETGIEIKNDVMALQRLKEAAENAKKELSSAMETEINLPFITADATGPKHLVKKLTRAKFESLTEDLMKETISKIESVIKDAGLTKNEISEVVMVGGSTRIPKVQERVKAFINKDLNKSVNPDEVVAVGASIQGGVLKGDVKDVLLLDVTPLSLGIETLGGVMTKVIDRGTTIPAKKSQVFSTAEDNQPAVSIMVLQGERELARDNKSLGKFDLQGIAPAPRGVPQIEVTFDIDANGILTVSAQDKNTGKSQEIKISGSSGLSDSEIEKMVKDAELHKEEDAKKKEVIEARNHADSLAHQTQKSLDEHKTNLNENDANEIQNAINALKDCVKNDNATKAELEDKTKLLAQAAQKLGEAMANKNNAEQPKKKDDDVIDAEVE
In words: SPR (BIAcore […]), DnaK amine-coupled to CM5 chip. In kind it is binding. On the technique in general: In SPR one partner is held on a chip, and binding of the other changes the refractive index at the surface.

The target in test [2] is T1, HSP70 (human HSP70). In words: SPR (BIAcore […]), HSP70 amine-coupled to CM5 chip. In kind it is binding.

SMILES strings stand for the structures.

A word on the Kd: it is the equilibrium constant for the complex coming apart.

T1 sequence (P0DMV8 whole entry): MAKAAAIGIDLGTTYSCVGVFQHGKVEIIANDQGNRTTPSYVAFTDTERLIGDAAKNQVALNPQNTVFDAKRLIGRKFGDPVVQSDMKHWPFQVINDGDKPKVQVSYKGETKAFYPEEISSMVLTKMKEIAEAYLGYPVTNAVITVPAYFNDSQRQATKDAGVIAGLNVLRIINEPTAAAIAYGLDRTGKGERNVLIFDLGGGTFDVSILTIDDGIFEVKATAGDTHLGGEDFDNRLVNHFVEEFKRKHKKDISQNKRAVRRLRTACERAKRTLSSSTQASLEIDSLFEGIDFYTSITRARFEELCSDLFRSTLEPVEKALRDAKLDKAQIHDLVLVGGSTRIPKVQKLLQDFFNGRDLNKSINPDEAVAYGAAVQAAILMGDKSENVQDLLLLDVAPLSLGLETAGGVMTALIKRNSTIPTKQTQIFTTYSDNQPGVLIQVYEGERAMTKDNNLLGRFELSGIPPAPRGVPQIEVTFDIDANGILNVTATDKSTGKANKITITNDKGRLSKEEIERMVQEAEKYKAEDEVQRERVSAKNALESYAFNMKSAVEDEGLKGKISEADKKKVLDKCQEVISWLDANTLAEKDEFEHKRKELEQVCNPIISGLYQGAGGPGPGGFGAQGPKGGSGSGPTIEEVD

In the case of `CC(=O)CC/C=C(\C)CC/C=C(\C)CC/C=C(\C)CCC=C(C)C` [GGA, 6,10,14,18-tetramethyl-5,9,13,17-nonadecatetraen-2-one], the “% reduction of chaperone activity at 5 mM” value on HSP70 (human HSP70) [1] amounted to 15%. The Kd stood at 75.5 nM on DnaK (H. pylori HSP70) and 2000 nM on HSP70 (human HSP70) [2].
